In US20260034094A1, “COMPOSITIONS AND METHODS FOR INDUCING FERROPTOSIS” (Kojin Therapeutics, Inc., priority 2022, published 2026):

Assays:
RKN cells = test: RKN cell profiling assay (cell viability, CellTiter-Glo); format: cell-based; details: cell viability, read-out: Cell Killing EC50
In short: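 Viability read by CellTiter-Glo luminescence after 96 h compound exposure (0.5% DMSO final) of cells plated at 1,000/well in 10% FBS F-12 and allowed 24 h attachment. Four-parameter fits gave EC50; rescue arms used ferrostatin-1, 1.5 μM, present from seeding.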

human recombinant GCL = human recombinant GCL (Homo sapiens (Human), UniProt P48506); test: GCL enzyme profiling assay (ADP-Glo luminescence); format: biochemical; details: human recombinant GCL, ADP-Glo; read-out: GCL IC50
In short: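 IC50 fitted by four-parameter logistic to luminescent ADP formation (ADP-Glo). Reaction at room temperature in HEPES pH 7.5 with 30 mM MgCl2, 0.2% F-127, 1% DMSO; 5 nM GCL and 0.6 mM ATP preincubated 1 h before adding 1 mM glutamate plus 1.2 mM α-aminobutyrate for 2 h.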

human recombinant GCL, sequence (P48506 whole entry): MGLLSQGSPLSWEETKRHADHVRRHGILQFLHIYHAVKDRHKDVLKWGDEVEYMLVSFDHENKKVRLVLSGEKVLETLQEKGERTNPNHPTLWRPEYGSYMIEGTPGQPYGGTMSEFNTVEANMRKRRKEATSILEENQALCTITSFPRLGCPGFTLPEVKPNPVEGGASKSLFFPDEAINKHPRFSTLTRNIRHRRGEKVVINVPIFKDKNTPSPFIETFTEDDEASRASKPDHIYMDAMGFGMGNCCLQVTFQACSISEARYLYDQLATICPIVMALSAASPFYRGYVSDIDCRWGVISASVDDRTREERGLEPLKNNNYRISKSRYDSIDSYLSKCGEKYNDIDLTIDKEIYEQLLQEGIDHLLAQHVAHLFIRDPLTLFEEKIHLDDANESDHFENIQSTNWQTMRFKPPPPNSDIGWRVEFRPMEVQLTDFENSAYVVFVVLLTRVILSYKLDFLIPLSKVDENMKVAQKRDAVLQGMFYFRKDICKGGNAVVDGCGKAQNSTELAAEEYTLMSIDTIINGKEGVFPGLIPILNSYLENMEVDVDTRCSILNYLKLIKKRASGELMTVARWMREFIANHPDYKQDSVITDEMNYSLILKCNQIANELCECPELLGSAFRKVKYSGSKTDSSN

Which results are given for N=S(=O)(CCC(c1ccc2[nH]ncc2c1)C(F)(F)F)CC[C@H](N)C(=O)O (stereo partly drawn) [Compound 386, (2S)-2-amino-4-(4,4,4-trifluoro-3-(1H-indazol-5-yl)butylsulfonimidoyl)butanoic acid]?
EC50 (RKN cells): < 1 mM; IC50 (human recombinant GCL): ≤ 20 µM

N=S(=O)(CC[C@H](N)C(=O)O)CCC1(c2ccccn2)CCC1 (stereo partly drawn) [Compound 387, (2S)-2-amino-4-(2-(1-(pyridin-2-yl)cyclobutyl)ethylsulfonimidoyl)butanoic acid] was tested. Which EC50 (RKN cells) did it give?
The EC50 was < 1 mM.

And the IC50 (human recombinant GCL)?
Its IC50 is 20 to 2000 µM.

How did the EC50 (RKN cells) turn out when N=S(=O)(CCC(c1ccc(-c2ccccc2)cc1O)C(F)(F)F)CC[C@H](N)C(=O)O (stereo partly drawn) [Compound 391, (2S)-2-amino-4-(4,4,4-trifluoro-3-(3-hydroxy-[1,1′-biphenyl]-4-yl)butylsulfonimidoyl)butanoic acid] was run?
The EC50 was < 1 mM.

And the IC50 (human recombinant GCL)?
Its IC50 is ≤ 20 µM.

N=S(=O)(CC[C@H](N)C(=O)O)CCC1(c2ccc3[nH]ncc3c2)CCC1 (stereo partly drawn) [Compound 394] was tested. Which EC50 (RKN cells) did it give?
The EC50 was ≥ 1 mM.

And the IC50 (human recombinant GCL)?
Its IC50 is ≤ 20 µM.

For N=S(=O)(CC[C@H](N)C(=O)O)CCC1(c2ccc3[nH]nnc3c2)CCC1 (stereo partly drawn) [Compound 395], which EC50 (RKN cells) is on record?
Its EC50 is < 1 mM.

What about the IC50 (human recombinant GCL) of the same compound?
The IC50 was 20 to 2000 µM.

With N=S(=O)(CC[C@H](N)C(=O)O)CCC1(c2ccc3[nH]cnc3c2)CCC1 (stereo partly drawn) [Compound 396] as the compound, how does the EC50 (RKN cells) read?
The EC50 was ≥ 1 mM.

What about the IC50 (human recombinant GCL) of the same compound?
Its IC50 is 20 to 2000 µM.

How did the EC50 (RKN cells) turn out when COc1ccccc1C(CCS(=N)(=O)CC[C@H](N)C(=O)O)C(F)(F)F (stereo partly drawn) [Compound 398] was run?
The EC50 was < 1 mM.

What about the IC50 (human recombinant GCL) of the same compound?
Its IC50 is ≤ 20 µM.

What does the source list for COc1ccc(-c2ccc(C3(CCS(=N)(=O)CC[C@H](N)C(=O)O)CCC3)cc2)c(Cl)c1 (stereo partly drawn) [Compound 400]?
EC50 (RKN cells): < 1 mM; IC50 (human recombinant GCL): ≤ 20 µM

What does the source list for N=S(=O)(CC[C@H](N)C(=O)O)CCC1(c2ccc(-c3ccc(O)cc3Cl)cc2)CCC1 (stereo partly drawn) [Compound 401]?
EC50 (RKN cells): ≥ 1 mM; IC50 (human recombinant GCL): ≤ 20 µM

Which results are given for N=S(=O)(CC[C@H](N)C(=O)O)CCC1(c2ccc(-c3ccc(Cl)cc3Cl)cc2)CCC1 (stereo partly drawn) [Compound 402]?
EC50 (RKN cells): < 1 mM; IC50 (human recombinant GCL): ≤ 20 µM

How did the EC50 (RKN cells) turn out when N=S(=O)(CCC(n1nccn1)C(F)(F)F)CC[C@H](N)C(=O)O (stereo partly drawn) [Compound 404, (2S)-2-amino-4-[[4,4,4-trifluoro-3-(triazol-2-yl)butyl]sulfonimidoyl]butanoic acid] was run?
The EC50 was < 1 mM.

And the IC50 (human recombinant GCL)?
The IC50 was 20 to 2000 µM.

What does the source list for N=S(=O)(CC[C@H](N)C(=O)O)CCC1(n2nccn2)CCC1 (stereo partly drawn) [Compound 405, (2S)-4-(2-(1-(2H-1,2,3-triazol-2-yl)cyclobutyl)ethylsulfonimidoyl)-2-aminobutanoic acid]?
EC50 (RKN cells): < 1 mM; IC50 (human recombinant GCL): 20 to 2000 µM

For Cc1cnn(C(CCS(=N)(=O)CC[C@H](N)C(=O)O)C(F)(F)F)n1 (stereo partly drawn) [Compound 406], which EC50 (RKN cells) is on record?
The EC50 was < 1 mM.

What about the IC50 (human recombinant GCL) of the same compound?
The IC50 was ≤ 20 µM.

N=S(=O)(CCC(n1ncc(-c2ccccn2)n1)C(F)(F)F)CC[C@H](N)C(=O)O (stereo partly drawn) [Compound 407] was tested. Which EC50 (RKN cells) did it give?
The EC50 was ≥ 1 mM.

What about the IC50 (human recombinant GCL) of the same compound?
Its IC50 is ≤ 20 µM.

Which results are given for N=S(=O)(CCC(n1ncc(-c2cccnc2)n1)C(F)(F)F)CC[C@H](N)C(=O)O (stereo partly drawn) [Compound 408]?
EC50 (RKN cells): ≥ 1 mM; IC50 (human recombinant GCL): ≤ 20 µM

Which EC50 (RKN cells) does the source give for N=S(=O)(CCC(n1ncc(-c2ccccc2)n1)C(F)(F)F)CC[C@H](N)C(=O)O (stereo partly drawn) [Compound 409] here?
The EC50 was < 1 mM.

And the IC50 (human recombinant GCL)?
Its IC50 is ≤ 20 µM.

N=S(=O)(CCC(n1nc2ccccc2n1)C(F)(F)F)CC[C@H](N)C(=O)O (stereo partly drawn) [Compound 410] was tested. Which EC50 (RKN cells) did it give?
Its EC50 is ≥ 1 mM.

And the IC50 (human recombinant GCL)?
Its IC50 is ≤ 20 µM.

How did the EC50 (RKN cells) turn out when N=S(=O)(CCC(n1cccn1)C(F)(F)F)CC[C@H](N)C(=O)O (stereo partly drawn) [Compound 411] was run?
The EC50 was < 1 mM.

And the IC50 (human recombinant GCL)?
The IC50 was 20 to 2000 µM.

Which EC50 (RKN cells) does the source give for Cc1ccn(C(CCS(=N)(=O)CC[C@H](N)C(=O)O)C(F)(F)F)n1 (stereo partly drawn) [Compound 412] here?
The EC50 was ≥ 1 mM.

What about the IC50 (human recombinant GCL) of the same compound?
The IC50 was 20 to 2000 µM.

Which EC50 (RKN cells) does the source give for N=S(=O)(CCC(n1ccc(C2CC2)n1)C(F)(F)F)CC[C@H](N)C(=O)O (stereo partly drawn) [Compound 413] here?
Its EC50 is ≥ 1 mM.

What about the IC50 (human recombinant GCL) of the same compound?
Its IC50 is 20 to 2000 µM.

Which EC50 (RKN cells) does the source give for N=S(=O)(CCC(n1ccc(-c2cccnc2)n1)C(F)(F)F)CC[C@H](N)C(=O)O (stereo partly drawn) [Compound 414] here?
The EC50 was ≥ 1 mM.

And the IC50 (human recombinant GCL)?
Its IC50 is 20 to 2000 µM.

N=S(=O)(CCC(n1ccc(-c2ccccn2)n1)C(F)(F)F)CC[C@H](N)C(=O)O (stereo partly drawn) [Compound 415] was tested. Which EC50 (RKN cells) did it give?
Its EC50 is ≥ 1 mM.

And the IC50 (human recombinant GCL)?
The IC50 was 20 to 2000 µM.

For N=S(=O)(CCC(n1ccc(-c2ccccc2)n1)C(F)(F)F)CC[C@H](N)C(=O)O (stereo partly drawn) [Compound 416], which EC50 (RKN cells) is on record?
Its EC50 is ≥ 1 mM.

And the IC50 (human recombinant GCL)?
Its IC50 is ≤ 20 µM.

For Cc1cnn(C2(CCS(=N)(=O)CC[C@H](N)C(=O)O)CCC2)n1 (stereo partly drawn) [Compound 417], which EC50 (RKN cells) is on record?
Its EC50 is < 1 mM.

What about the IC50 (human recombinant GCL) of the same compound?
Its IC50 is 20 to 2000 µM.

How did the EC50 (RKN cells) turn out when N=S(=O)(CC[C@H](N)C(=O)O)CCC1(n2ncc(-c3ccccn3)n2)CCC1 (stereo partly drawn) [Compound 418] was run?
The EC50 was ≥ 1 mM.

What about the IC50 (human recombinant GCL) of the same compound?
The IC50 was 20 to 2000 µM.

Which results are given for N=S(=O)(CC[C@H](N)C(=O)O)CCC1(n2ncc(-c3cccnc3)n2)CCC1 (stereo partly drawn) [Compound 419]?
EC50 (RKN cells): ≥ 1 mM; IC50 (human recombinant GCL): 20 to 2000 µM

Which EC50 (RKN cells) does the source give for N=S(=O)(CC[C@H](N)C(=O)O)CCC1(n2ncc(-c3ccccc3)n2)CCC1 (stereo partly drawn) [Compound 420] here?
The EC50 was ≥ 1 mM.

What about the IC50 (human recombinant GCL) of the same compound?
The IC50 was ≤ 20 µM.

N=S(=O)(CC[C@H](N)C(=O)O)CCC1(n2nc3ccccc3n2)CCC1 (stereo partly drawn) [Compound 421] was tested. Which EC50 (RKN cells) did it give?
Its EC50 is ≥ 1 mM.

What about the IC50 (human recombinant GCL) of the same compound?
The IC50 was ≤ 20 µM.

For N=S(=O)(CC[C@H](N)C(=O)O)CCC(O)(c1ccc(-c2ccccc2)cc1)C(F)(F)F (stereo partly drawn) [Compound 424, (2S)-4-(3-([1,1′-biphenyl]-4-yl)-4,4,4-trifluoro-3-hydroxybutylsulfonimidoyl)-2-aminobutanoic acid], which EC50 (RKN cells) is on record?
Its EC50 is < 1 mM.

What about the IC50 (human recombinant GCL) of the same compound?
The IC50 was ≤ 20 µM.

For N=S(=O)(CC[C@H](N)C(=O)O)CCC(O)(c1ccc(-c2ccc3ccc(=O)oc3c2)cc1)C(F)(F)F (stereo partly drawn) [Compound 425, (2S)-2-amino-4-(4,4,4-trifluoro-3-hydroxy-3-(4-(2-oxo-2H-chromen-7-yl)phenyl)butylsulfonimidoyl)butanoic acid], which EC50 (RKN cells) is on record?
Its EC50 is ≥ 1 mM.

What about the IC50 (human recombinant GCL) of the same compound?
The IC50 was ≤ 20 µM.

For N=S(=O)(CC[C@H](N)C(=O)O)CCC(O)(c1ccc(-n2cccn2)cc1)C(F)(F)F (stereo partly drawn) [Compound 426, (2S)-4-(3-(4-(1H-pyrazol-1-yl)phenyl)-4,4,4-trifluoro-3-hydroxybutylsulfonimidoyl)-2-aminobutanoic acid], which EC50 (RKN cells) is on record?
Its EC50 is ≥ 1 mM.

And the IC50 (human recombinant GCL)?
Its IC50 is 20 to 2000 µM.

With N[C@@H](CCS(=O)(=O)CCC(O)(c1ccc(-c2ccc(Cl)cc2Cl)cc1)C(F)(F)F)C(=O)O (stereo partly drawn) [Compound 427, (2S)-2-amino-4-((3-(2′, 4′-dichloro-[1, 1′-biphenyl]-4-yl)-4,4,4-trifluoro-3-hydroxybutyl)sulfonyl) butanoic acid] as the compound, how does the EC50 (RKN cells) read?
Its EC50 is ≥ 1 mM.

What about the IC50 (human recombinant GCL) of the same compound?
Its IC50 is 20 to 2000 µM.

N=S(=O)(CC[C@H](N)C(=O)O)CCC(O)(c1ccc(-c2ccc(Cl)cc2Cl)cc1)C(F)(F)F (stereo partly drawn) [Compound 428] was tested. Which EC50 (RKN cells) did it give?
Its EC50 is < 1 mM.

And the IC50 (human recombinant GCL)?
Its IC50 is ≤ 20 µM.

With N=S(=O)(CC[C@H](N)C(=O)O)CCC(O)(c1ccc(-c2ccccc2O)cc1)C(F)(F)F (stereo partly drawn) [Compound 434] as the compound, how does the EC50 (RKN cells) read?
The EC50 was < 1 mM.

What about the IC50 (human recombinant GCL) of the same compound?
The IC50 was ≤ 20 µM.

Which results are given for Cc1ccc(-c2ccc(C(O)(CCS(=N)(=O)CC[C@H](N)C(=O)O)C(F)(F)F)cc2)c(C)c1 (stereo partly drawn) [Compound 438]?
EC50 (RKN cells): < 1 mM; IC50 (human recombinant GCL): ≤ 20 µM

N=S(=O)(CC[C@H](N)C(=O)O)CCC(O)(c1ccc(-c2ccc(C(F)(F)F)cc2C(F)(F)F)cc1)C(F)(F)F (stereo partly drawn) [Compound 439] was tested. Which EC50 (RKN cells) did it give?
Its EC50 is < 1 mM.

And the IC50 (human recombinant GCL)?
The IC50 was ≤ 20 µM.

Which EC50 (RKN cells) does the source give for COc1cc(OC(F)(F)F)ccc1-c1ccc(C(O)(CCS(=N)(=O)CC[C@H](N)C(=O)O)C(F)(F)F)cc1 (stereo partly drawn) [Compound 440] here?
Its EC50 is < 1 mM.

And the IC50 (human recombinant GCL)?
Its IC50 is ≤ 20 µM.

Which results are given for N=S(=O)(CC[C@H](N)C(=O)O)CCC(O)(c1ccc(-c2ccc(C(F)(F)F)cc2Cl)cc1)C(F)(F)F (stereo partly drawn) [Compound 441]?
EC50 (RKN cells): < 1 mM; IC50 (human recombinant GCL): 20 to 2000 µM

What does the source list for CS(=O)(=O)c1ccc(-c2ccc(C(O)(CCS(=N)(=O)CC[C@H](N)C(=O)O)C(F)(F)F)cc2)c(Cl)c1 (stereo partly drawn) [Compound 442]?
EC50 (RKN cells): ≥ 1 mM; IC50 (human recombinant GCL): ≤ 20 µM
